According to patent US7153826B2, “Treatment of rosacea” (Seatek Marine Biotechnology, Inc., priority 2000, dated 2006):
[ ]: non-standard residue; d: D form. Orn = NCCC[C@H](N)C(=O)O

Tests used:
rosacea [1] = test: Topical treatment of a human subject with moderately severe rosacea and pustular lesions (Example 1); type: in vivo
Experimental: The effectiveness of a cyclic decapeptide antibiotic for treating rosacea was determined on a human subject afflicted, for two years duration, with moderately severe rosacea and pustular lesions. […] The subject received topical metronidazole in a carbomer gel composition (Metrogel™) applied in the morning. Topical loloatin B (which was obtained by fermentation of the Bacillus deposited as ATCC 55797 generally following the methods described in WO98/04584) was applied in the evening. The loloatin was first dissolved in a minimal amount of alcohol which was then mixed with Lubriderm™ lotion to provide 1% w/v formulation.

rosacea [2] = test: Topical treatment of a subject afflicted with rosacea, two-year trial period (Example 2); type: in vivo, human
From the text: A subject afflicted with rosacea received topical Metrogel™ overlayed with Lubriderm™ lotion in the morning and 1% loloatin B formulated in Lubriderm™ (as described above) in the evening. […] With this combined treatment, the rosacea was controlled such that only a few lesions were present at any given time, and complete remissions of several days duration became common.

rosacea [3] = details: metronidazole administered topically twice daily; cited from earlier work

Row | Compound | improvement in the rosacea on reinstituting the regimen (rosacea [1]; each time once daily Metrogel and once daily loloatin was reinstituted) | improvement in the rosacea (rosacea [1]; topical Metrogel in the morning plus 1% w/v loloatin B in Lubriderm lotion in the evening, after one month) | control of the condition (rosacea [2]; combined Metrogel morning / 1% loloatin B evening, throughout the trial period (two years)) | healing time of the lesions (rosacea [2]; combined treatment Metrogel morning / 1% loloatin B evening) [days] | course of the rosacea (rosacea [2]; topical Metrogel overlayed with Lubriderm in the morning plus 1% loloatin B in Lubriderm in the evening) | benefit of previous treatments (rosacea [1]; previous treatments with metronidazole, same subject) | patients who do not benefit from treatment (rosacea [3])
1 | cyclo[L-Val-L-Orn-L-Leu-D-Tyr-L-Pro-L-Phe-D-Phe-L-Asn-L-Asp-L-Trp] (cyclo(V[Orn]L[dY]PF[dF]NDW); SMILES CC(C)C[C@@H]1NC(=O)[C@H](CCCN)NC(=O)[C@H](C(C)C)NC(=O)[C@H](Cc2c[nH]c3ccccc23)NC(=O)[C@H](CC(=O)O)NC(=O)[C@H](CC(N)=O)NC(=O)[C@@H](Cc2ccccc2)NC(=O)[C@H](Cc2ccccc2)NC(=O)[C@@H]2CCCN2C(=O)[C@@H](Cc2ccc(O)cc2)NC1=O) [loloatin B] | significant improvement | Significant improvement | effectively controlled | 2 to 3 | Progressive improvement | – | –
2 | Cc1ncc([N+](=O)[O-])n1CCO [metronidazole, reference compound] | – | – | – | – | – | without benefit | about 50%
